The values below come from BindingDB's records for doi:10.1021/acs.jmedchem.5b01559 (University of Siena, 2016).

Molecules are shown by their SMILES.

In this experiment the target is Cannabinoid receptor 2 (Homo sapiens, UniProt P34972). In words: Displacement of [3H]-CP-55940 from human recombinant CB2 receptor expressed in HEK293 cells after 90 mins by Competition binding assay.
Chain of Cannabinoid receptor 2 (P34972 whole entry): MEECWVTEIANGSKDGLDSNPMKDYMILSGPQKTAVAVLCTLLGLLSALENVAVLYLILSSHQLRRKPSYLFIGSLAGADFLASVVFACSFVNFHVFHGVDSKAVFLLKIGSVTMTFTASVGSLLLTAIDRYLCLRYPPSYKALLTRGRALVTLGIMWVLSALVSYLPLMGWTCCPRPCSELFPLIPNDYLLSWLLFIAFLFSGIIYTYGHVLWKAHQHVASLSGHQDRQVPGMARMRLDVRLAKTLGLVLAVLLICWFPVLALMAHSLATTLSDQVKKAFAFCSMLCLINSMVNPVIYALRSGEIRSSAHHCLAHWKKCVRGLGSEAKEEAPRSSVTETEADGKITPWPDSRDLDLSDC
For the molecule `CCCCCn1c(=O)c(C(=O)NC23CC4CC(CC(C4)C2)C3)c(O)c2cc(C(C)C)ccc21`, the Ki is 0.00053 µM.

As for `CCCCCn1c(=O)c(C(=O)NC23CC4CC(CC(C4)C2)C3)c(O)c2ccc(F)cc21`, the Ki was 0.00093 µM. To `CC(C)c1ccc2c(c1)c(=O)c(C(=O)NC13CC4CC(CC(C4)C1)C3)cn2CCN(C)C` belongs 0.146 µM; to `COCCOCn1cc(C(=O)NC23CC4CC(CC(C4)C2)C3)c(=O)c2cc(C(C)C)ccc21`, 0.48 µM. `CC(C)c1ccc2c(c1)c(=O)c(C(=O)NC13CC4CC(CC(C4)C1)C3)cn2CCN1CCS(=O)(=O)CC1`: the Ki is 1.93 µM. The same measure for `CN(C)CCn1cc(C(=O)NC23CC4CC(CC(C4)C2)C3)c(=O)c2ccc(F)cc21`: 0.06 µM. Regarding `COCCOCn1cc(C(=O)NC23CC4CC(CC(C4)C2)C3)c(=O)c2ccc(F)cc21`, the Ki was 0.056 µM. The same measure for `O=C(NC12CC3CC(CC(C3)C1)C2)c1cn(CCN2CCS(=O)(=O)CC2)c2cc(F)ccc2c1=O`: 0.246 µM; for `CC(C)c1cc2c(=O)c(C(=O)NC34CC5CC(CC(C5)C3)C4)cn(CCN(C)C)c2cc1F`: 0.011 µM; for `CCCCCn1c(=O)c(C(=O)NC23CC4CC(CC(C4)C2)C3)c(O)c2cc(C(C)C)c(F)cc21`: 0.066 µM. On to `O=C(NCC1CCCCC1)c1c(O)c2ccccc2n(CCCCO)c1=O`, for which the Ki was found to be 0.041 µM. Regarding `O=C(NCc1ccc(F)cc1)c1c(O)c2cc(-c3ccco3)ccc2n(CCCCO)c1=O`, the Ki came to 0.253 µM. To `COc1ccc(CNC(=O)c2c(O)c3cc(-c4cccs4)ccc3n(CCCCO)c2=O)cc1` belongs 2.24 µM; to `CCCCCn1c(=O)c(C(=O)NCc2ccc(OC)cc2)c(O)c2cc(-c3cccs3)ccc21`, 0.02 µM.

In general, Ki refers to the equilibrium dissociation constant of an inhibitor or competing ligand from its target.
